According to patent US11607414B2, “Small molecule inhibitors of EGFR and PI3K” (The Regents of the University of Michigan, priority 2014, dated 2023):

Experiments:
[1] = tested on: phosphorylation of AKT in HCT-116 tumors; assay: In vivo pharmacodynamics in subcutaneous HCT-116 tumors, pAKT; settings: single oral dose 100 mg/kg, two hours post-dosing
Excerpt: (§1) However, additional synthesis of MOL-162 is needed to allow a full pharmacodynamic time course study to be carried out to determine the maximal degree of target inhibition of both targets after single and repeated daily dosing.

EGFR = EGFR (Homo sapiens, UniProt P00533); assay: Z'-LYTE biochemical kinase assay, EGFR
Sequence of EGFR (P00533 25-1210): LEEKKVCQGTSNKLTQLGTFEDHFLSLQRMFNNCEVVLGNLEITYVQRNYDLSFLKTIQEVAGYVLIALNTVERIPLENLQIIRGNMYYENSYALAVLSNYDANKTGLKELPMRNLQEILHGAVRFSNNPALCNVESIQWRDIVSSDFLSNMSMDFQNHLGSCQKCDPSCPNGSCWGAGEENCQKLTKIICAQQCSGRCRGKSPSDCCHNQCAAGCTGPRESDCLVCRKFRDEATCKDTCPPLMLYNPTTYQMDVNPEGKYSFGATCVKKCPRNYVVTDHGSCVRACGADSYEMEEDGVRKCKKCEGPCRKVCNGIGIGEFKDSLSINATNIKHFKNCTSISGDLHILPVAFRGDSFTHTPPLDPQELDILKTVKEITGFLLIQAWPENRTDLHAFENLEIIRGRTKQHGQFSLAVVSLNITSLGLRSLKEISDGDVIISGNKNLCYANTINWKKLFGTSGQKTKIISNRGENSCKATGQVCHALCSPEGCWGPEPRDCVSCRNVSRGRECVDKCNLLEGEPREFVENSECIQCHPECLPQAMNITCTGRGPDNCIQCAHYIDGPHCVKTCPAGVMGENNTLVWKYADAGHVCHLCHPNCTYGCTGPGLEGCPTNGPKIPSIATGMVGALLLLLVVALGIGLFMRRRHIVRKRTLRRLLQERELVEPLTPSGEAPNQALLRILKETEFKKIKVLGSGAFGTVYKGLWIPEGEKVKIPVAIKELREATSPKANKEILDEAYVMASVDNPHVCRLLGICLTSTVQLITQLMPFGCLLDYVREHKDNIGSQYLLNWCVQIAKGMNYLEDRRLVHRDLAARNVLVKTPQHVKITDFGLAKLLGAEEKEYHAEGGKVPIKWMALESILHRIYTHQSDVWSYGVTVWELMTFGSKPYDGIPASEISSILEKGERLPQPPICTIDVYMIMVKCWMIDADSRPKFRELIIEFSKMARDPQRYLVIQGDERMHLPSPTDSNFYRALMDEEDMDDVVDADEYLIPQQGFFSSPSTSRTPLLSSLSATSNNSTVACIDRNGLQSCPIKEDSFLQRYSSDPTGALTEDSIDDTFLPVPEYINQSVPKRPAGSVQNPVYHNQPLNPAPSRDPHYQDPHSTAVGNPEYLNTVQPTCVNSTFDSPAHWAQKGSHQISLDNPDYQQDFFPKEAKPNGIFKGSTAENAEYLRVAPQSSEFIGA
Method: Various compounds were tested for their ability to inhibit EGFR and PIK3CA. The assays determining inhibitions are given in Example 2 Assays-Z′-LYTE® and ADAPTA.
Assays: The Z′-LYTE® biochemical assay employs a fluorescence-based, coupled-enzyme format and is based on the differential sensitivity of phosphorylated and non-phosphorylated peptides to proteolytic cleavage (FIG. 6). The peptide substrate is labeled with two fluorophores—one at each end— that make up a FRET pair. In the primary reaction, the kinase transfers the gamma-phosphate of ATP to a single tyrosine, serine or threonine residue in a synthetic FRET-peptide. […] A ratiometric method, which calculates the ratio (the Emission Ratio) of donor emission to acceptor emission after excitation of the donor fluorophore at 400 nm, is used to quantitate reaction progress.
A significant benefit of this ratiometric method for quantitating reaction progress is the elimination of well-to-well variations in FRET-peptide concentration and signal intensities. […]
Both cleaved and uncleaved FRET-peptides contribute to the fluorescence signals and therefore to the Emission Ratio. The extent of phosphorylation of the FRET-peptide can be calculated from the Emission Ratio. […]
Bar-coded Corning, low volume NBS, black 384-well plate (Corning Cat. 4514) 1. […] Read on fluorescence plate reader and analyze the data.

[2] = tested on: KRAS mutant HCT-116 cells; assay: HCT-116 cell viability / proliferation (Cell Titer Glo); type: cell-based
Method: Cell proliferation was determined using the Cell Titer Glo assay (Promega, Madison, Wis.). Cell lines were seeded at a density between 2,000 and 5,000 cells per well in a 96-well plate. Twenty four hours after plating, cells were dosed with varying concentrations of drug, either as a single agent or in combination. The signal for Cell Titer Glo was determined 72 or 96 hours after dosing.

[3] = tested on: phosphorylation of EGFR in HCT-116 tumors; assay: In vivo pharmacodynamics in subcutaneous HCT-116 tumors, pEGFR; settings: single oral dose 100 mg/kg, two hours post-dosing
Excerpt: as §1

[4] = tested on: pAKT and pEGFR in HCT-116 cells; assay: Effect on pAKT and pEGFR in HCT-116 cells (Western blot); type: cell-based
Method: [50 mmol/L Tris-HCl (pH 8.0), 150 mmol/L NaCl, 1% NP40, 0.5% Na-deoxycholate, 0.1% SDS, containing protease (P8340, Sigma, St. Louis, Mo.) and phosphatase (P5726, Sigma) inhibitor cocktails]. The soluble protein concentration was determined by micro-bovine serum albumin assay (Pierce, Rockford, Ill.). Protein immunodetection was done by electrophoretic transfer of SDS-PAGE separated proteins to nitrocellulose, incubation with antibody, and chemiluminescent second step detection (PicoWest, Pierce). The antibodies included EGFR, phospho-EGFR (Y1068), phospho-p42/p44, phospho-Akt (473), phospho-Akt (308), total Akt, phosho-S6 (235/236), and total S6. All antibodies were obtained from Cell Signaling Technologies (Danvers, Mass.). […]
Cell extracts were prepared by detergent lysis [25 mmol/L Tris-HCl (pH 7.6), 150 mmol/L NaCl, 1% Nonidet P-40, 10% glycerol, 1 mM EDTA, 1 mmol/L dithiothreitol (DTT), and protease and phosphatase inhibitors, rocked for 30 minutes at 4° C., and centrifuged at 14,000 rpm for 20 min at 4° C. Protein concentration was determined by BioRad Protein Assays and lysates were subsequently subjected to SDS gel electrophoresis. […] After incubation with either anti-rabbit HRP or anti-mouse HRP linked secondary antibody (Jackson ImmunoResearch Laboratories, Inc.), proteins were detected using chemiluminescence (GE Healthcare).

inhibition of / potency against purified EGFR (in words) (EGFR): potent dual inhibition
Compound: CS(=O)(=O)Nc1cncc(-c2ccc3ncnc(Nc4cccc(Cl)c4)c3c2)c1 [MOL-162, N-(5-(4-((3-chlorophenyl)amino)quinazolin-6-yl)pyridin-3-yl)methanesulfonamide]
phosphorylation of AKT in tumors [1]: not as strongly inhibited | cytotoxicity [2]: cytotoxicity | phosphorylation of EGFR in tumors [3]: completely suppressed | cellular modulation of EGFR and PI3K pathways [4]: cellular modulation of both pathways
